AC50 data for six compounds are collected here from ChEMBL document CHEMBL5291721, “A preclinical secondary pharmacology resource illuminates target-adverse drug reaction associations of marketed drugs” (Nat Commun, 2023).

Some results are limits rather than exact numbers.

Assay [1] concerns the target T1, Amine oxidase [flavin-containing] A (Homo sapiens, UniProt P21397).
T1 sequence (P21397 whole entry): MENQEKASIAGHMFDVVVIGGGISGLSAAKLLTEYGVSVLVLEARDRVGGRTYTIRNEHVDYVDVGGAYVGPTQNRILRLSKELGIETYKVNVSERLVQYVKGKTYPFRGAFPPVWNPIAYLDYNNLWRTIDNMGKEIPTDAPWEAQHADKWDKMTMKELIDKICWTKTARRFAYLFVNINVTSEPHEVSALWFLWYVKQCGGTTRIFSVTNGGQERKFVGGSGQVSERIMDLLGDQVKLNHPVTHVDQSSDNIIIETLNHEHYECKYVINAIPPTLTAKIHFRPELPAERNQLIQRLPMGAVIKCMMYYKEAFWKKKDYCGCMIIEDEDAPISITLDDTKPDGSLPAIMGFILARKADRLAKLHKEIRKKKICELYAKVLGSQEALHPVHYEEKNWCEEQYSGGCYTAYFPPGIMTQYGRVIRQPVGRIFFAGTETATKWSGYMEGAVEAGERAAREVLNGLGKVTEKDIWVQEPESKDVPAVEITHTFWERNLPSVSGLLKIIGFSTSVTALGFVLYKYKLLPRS
It is filed as functional.

The target of assay [2] is T2, Prostaglandin G/H synthase 1 (Homo sapiens, UniProt P23219). It is filed as functional.
T2 sequence (P23219 whole entry): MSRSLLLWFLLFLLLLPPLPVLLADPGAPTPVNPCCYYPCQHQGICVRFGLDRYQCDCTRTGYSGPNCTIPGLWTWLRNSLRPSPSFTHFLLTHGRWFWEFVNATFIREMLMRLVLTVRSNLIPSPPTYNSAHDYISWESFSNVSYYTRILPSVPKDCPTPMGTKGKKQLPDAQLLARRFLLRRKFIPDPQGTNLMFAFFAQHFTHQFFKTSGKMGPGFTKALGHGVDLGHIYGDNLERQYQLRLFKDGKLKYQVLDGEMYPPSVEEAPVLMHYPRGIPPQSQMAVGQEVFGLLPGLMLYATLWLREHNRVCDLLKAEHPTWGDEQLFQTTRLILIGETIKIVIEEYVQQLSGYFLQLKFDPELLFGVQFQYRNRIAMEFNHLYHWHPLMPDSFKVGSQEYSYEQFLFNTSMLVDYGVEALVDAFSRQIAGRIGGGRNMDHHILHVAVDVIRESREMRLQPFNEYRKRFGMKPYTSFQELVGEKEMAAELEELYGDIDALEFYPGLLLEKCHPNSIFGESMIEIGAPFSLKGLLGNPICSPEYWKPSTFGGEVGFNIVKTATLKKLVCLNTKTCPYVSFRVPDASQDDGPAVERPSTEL
Assay [3] deals with T3, 5-hydroxytryptamine receptor 1A (Homo sapiens, UniProt P08908).
T3 sequence (P08908 whole entry): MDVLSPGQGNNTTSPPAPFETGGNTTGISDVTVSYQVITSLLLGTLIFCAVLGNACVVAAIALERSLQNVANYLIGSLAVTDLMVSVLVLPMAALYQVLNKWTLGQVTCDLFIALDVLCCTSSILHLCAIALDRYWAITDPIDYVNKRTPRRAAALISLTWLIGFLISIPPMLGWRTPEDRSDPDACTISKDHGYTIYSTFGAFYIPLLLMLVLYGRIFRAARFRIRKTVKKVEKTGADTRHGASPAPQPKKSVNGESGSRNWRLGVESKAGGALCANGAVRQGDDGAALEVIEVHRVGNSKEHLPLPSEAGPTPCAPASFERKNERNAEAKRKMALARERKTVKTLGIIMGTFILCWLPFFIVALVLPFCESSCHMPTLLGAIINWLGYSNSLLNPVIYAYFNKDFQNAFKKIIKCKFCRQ

A further assay addresses T4, Progesterone receptor (Homo sapiens, UniProt P06401).
T4 sequence (P06401 whole entry): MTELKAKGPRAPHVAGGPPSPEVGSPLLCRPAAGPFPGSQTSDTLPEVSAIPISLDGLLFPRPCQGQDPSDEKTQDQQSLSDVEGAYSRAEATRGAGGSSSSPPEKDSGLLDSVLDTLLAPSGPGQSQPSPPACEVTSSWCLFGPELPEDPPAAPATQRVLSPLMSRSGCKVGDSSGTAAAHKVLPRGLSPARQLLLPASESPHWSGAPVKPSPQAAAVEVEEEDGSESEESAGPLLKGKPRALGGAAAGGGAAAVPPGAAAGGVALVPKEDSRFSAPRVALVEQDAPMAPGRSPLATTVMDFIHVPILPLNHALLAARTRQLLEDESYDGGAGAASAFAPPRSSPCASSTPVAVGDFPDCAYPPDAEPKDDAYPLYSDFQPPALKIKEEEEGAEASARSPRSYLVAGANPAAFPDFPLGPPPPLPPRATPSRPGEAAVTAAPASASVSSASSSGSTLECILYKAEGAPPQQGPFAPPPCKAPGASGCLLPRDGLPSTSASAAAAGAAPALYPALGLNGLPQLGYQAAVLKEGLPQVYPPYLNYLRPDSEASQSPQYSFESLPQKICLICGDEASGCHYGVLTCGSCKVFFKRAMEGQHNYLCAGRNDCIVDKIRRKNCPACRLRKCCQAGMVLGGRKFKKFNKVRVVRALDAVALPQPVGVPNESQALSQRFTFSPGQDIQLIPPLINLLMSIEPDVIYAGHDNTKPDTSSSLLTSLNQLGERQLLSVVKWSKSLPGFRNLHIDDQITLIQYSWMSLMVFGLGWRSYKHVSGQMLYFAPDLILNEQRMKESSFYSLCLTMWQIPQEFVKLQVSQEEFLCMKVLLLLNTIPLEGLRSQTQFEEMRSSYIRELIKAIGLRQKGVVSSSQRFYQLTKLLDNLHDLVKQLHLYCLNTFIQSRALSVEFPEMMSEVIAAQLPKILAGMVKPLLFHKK

The target in assay [4] is T2, Prostaglandin G/H synthase 1. It is filed as functional. The source holds these as a separate data set.
Assay [5] deals with Sodium-dependent noradrenaline transporter (Homo sapiens, UniProt P23975).
Chain of Sodium-dependent noradrenaline transporter (P23975 whole entry): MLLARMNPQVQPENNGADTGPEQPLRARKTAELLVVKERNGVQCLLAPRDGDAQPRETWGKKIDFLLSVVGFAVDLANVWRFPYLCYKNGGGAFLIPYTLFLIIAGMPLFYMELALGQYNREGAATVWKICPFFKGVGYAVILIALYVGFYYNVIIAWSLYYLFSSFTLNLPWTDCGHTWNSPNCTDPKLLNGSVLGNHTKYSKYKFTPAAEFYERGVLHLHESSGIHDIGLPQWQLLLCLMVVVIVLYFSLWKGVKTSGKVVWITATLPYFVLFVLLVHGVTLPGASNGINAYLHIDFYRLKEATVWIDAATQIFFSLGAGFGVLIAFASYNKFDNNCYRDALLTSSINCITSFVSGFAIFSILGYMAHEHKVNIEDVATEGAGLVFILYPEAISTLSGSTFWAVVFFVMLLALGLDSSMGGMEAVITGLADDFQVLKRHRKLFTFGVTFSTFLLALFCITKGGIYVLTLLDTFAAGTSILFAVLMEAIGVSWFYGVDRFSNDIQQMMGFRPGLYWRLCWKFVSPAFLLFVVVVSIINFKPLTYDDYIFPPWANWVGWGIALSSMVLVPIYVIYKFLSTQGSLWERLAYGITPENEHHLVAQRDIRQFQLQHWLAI
Assay [6] concerns the target Sodium-dependent dopamine transporter (Homo sapiens, UniProt Q01959).
In assay [7] the target is Vascular endothelial growth factor receptor 2 (Homo sapiens, UniProt P35968). It is filed as functional.
Chain of Vascular endothelial growth factor receptor 2 (P35968 whole entry): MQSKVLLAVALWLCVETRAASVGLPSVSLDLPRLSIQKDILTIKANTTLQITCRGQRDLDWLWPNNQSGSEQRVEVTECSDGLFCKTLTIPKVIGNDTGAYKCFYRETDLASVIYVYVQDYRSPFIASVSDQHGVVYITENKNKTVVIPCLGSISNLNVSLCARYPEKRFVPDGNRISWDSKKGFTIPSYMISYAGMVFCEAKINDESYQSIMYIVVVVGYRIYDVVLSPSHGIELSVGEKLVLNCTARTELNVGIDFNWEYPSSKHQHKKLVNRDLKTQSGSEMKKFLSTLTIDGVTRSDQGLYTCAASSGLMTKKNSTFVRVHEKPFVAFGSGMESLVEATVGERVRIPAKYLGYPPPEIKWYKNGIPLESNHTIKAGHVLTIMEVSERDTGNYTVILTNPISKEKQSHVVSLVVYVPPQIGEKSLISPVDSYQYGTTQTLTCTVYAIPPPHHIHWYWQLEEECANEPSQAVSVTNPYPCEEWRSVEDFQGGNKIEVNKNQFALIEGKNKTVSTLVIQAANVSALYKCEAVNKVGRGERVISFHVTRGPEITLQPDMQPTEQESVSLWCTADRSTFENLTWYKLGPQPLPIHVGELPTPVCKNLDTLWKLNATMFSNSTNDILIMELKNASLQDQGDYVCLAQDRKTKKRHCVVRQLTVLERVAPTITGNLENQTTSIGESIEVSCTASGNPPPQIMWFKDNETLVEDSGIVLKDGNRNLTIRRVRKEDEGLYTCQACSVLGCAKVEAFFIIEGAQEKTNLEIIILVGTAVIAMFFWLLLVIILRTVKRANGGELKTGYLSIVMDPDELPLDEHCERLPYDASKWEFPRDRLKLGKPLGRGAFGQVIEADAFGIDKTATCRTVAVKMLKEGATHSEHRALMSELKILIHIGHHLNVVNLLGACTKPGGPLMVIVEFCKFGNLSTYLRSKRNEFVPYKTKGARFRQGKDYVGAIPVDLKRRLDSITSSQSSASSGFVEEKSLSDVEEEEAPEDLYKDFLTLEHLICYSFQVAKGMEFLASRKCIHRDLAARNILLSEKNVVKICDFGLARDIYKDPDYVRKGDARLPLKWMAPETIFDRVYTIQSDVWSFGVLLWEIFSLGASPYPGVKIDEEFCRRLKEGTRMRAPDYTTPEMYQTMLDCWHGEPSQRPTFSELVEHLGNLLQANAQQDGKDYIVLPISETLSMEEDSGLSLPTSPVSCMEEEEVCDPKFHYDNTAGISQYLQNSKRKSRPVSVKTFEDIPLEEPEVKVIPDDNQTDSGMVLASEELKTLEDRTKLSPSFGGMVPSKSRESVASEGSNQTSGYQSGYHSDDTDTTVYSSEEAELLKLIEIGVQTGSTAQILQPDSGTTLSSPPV
Assay [8] addresses T5, Thromboxane A2 receptor (Homo sapiens, UniProt P21731).
T5 sequence (P21731 whole entry): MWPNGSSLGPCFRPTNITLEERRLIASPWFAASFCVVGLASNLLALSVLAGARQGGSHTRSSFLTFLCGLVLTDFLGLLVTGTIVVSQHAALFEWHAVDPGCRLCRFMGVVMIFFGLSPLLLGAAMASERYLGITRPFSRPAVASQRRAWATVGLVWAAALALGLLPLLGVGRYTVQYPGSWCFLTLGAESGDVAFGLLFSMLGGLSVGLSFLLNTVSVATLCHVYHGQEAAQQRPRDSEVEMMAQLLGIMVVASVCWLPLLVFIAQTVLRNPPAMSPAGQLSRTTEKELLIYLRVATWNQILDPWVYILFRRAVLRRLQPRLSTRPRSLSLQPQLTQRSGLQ
It is filed as functional, cell-based.

Another assay has as its target Acetylcholinesterase (Homo sapiens, UniProt P22303). It is filed as functional.
Assay [9] addresses T5, Thromboxane A2 receptor. It is filed as functional, cell-based. The source holds these as a separate data set.
The next assay concerns the target D(1A) dopamine receptor (Homo sapiens, UniProt P21728).
A further assay concerns the target Prothrombin (Homo sapiens, UniProt P00734). It is filed as functional.
For assay [10], the target named is 5-hydroxytryptamine receptor 2B (Homo sapiens, UniProt P41595). It is filed as functional, cell-based.
Chain of 5-hydroxytryptamine receptor 2B (P41595 whole entry): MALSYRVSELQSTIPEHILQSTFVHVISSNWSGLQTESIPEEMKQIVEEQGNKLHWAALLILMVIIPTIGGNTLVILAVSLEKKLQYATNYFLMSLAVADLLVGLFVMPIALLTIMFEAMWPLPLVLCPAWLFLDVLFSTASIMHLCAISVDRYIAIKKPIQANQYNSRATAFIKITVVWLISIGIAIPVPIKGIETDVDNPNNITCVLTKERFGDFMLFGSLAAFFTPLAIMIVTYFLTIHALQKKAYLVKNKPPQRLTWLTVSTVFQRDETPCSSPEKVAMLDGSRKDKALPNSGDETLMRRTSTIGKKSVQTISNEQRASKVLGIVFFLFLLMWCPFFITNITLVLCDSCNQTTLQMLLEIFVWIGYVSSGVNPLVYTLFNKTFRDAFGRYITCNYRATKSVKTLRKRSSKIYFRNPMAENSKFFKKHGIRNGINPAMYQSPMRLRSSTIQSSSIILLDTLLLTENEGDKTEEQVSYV
The target in assay [11] is cGMP-inhibited 3',5'-cyclic phosphodiesterase 3A (Homo sapiens, UniProt Q14432). It is filed as functional.
Further: assay procedure not described here.

Chain of Acetylcholinesterase (P22303 whole entry): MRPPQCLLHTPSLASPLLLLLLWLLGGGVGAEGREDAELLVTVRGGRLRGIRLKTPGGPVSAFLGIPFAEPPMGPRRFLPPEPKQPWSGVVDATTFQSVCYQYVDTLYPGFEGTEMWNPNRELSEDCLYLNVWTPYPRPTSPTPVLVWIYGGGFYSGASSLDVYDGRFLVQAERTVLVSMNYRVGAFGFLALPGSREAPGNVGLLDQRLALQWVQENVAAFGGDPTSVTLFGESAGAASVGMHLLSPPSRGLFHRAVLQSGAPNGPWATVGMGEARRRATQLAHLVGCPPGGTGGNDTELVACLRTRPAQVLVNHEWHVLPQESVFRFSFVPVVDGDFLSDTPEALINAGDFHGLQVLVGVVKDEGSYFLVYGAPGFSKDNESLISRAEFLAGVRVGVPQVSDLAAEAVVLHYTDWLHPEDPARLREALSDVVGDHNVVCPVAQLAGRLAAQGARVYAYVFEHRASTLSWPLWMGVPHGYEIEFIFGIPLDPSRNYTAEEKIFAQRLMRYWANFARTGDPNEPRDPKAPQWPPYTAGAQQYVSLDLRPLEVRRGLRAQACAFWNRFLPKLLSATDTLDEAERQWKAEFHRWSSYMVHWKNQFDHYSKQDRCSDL
Chain of D(1A) dopamine receptor (P21728 whole entry): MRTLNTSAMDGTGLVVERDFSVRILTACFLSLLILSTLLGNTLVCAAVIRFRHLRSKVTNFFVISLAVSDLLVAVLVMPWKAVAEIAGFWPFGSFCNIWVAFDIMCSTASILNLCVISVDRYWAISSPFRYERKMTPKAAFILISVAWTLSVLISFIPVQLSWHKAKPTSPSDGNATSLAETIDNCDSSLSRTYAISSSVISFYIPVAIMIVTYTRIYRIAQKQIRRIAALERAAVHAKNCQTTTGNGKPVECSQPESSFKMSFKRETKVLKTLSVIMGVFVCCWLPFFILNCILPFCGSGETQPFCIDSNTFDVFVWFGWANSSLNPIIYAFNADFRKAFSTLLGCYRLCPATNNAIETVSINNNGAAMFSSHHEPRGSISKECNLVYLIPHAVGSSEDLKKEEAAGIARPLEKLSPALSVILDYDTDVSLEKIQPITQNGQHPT
Chain of Sodium-dependent dopamine transporter (Q01959 whole entry): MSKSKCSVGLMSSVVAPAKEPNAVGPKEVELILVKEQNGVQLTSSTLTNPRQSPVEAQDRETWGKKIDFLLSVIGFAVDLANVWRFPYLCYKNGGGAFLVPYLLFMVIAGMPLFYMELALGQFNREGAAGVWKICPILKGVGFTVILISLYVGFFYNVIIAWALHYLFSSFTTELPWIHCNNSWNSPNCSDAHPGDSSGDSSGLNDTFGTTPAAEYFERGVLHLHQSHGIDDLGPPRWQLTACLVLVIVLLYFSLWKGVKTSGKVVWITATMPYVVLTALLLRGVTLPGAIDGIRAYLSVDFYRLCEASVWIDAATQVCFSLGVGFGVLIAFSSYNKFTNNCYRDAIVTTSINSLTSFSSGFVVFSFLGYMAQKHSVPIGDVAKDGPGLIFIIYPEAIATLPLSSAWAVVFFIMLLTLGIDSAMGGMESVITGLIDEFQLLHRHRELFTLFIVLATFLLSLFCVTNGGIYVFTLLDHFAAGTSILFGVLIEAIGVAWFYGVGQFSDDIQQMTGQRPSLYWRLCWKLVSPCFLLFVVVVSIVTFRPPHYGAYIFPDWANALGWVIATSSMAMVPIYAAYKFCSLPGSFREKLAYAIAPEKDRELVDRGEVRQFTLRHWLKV

Broadly, the AC50 is the concentration giving half of the maximal activity seen. `OCc1ccccc1` [BENZYL ALCOHOL]: the AC50 (in [1]; in [2]; in [3]; at Progesterone receptor; in [4]; in assay [5]) was greater than 30 µM each time. In addition, the concentration at half-maximal activity (AC50) (in assay [6]; in assay [7]; at Thromboxane A2 receptor [8]; at Acetylcholinesterase; on Thromboxane A2 receptor [9]; on D(1A) dopamine receptor) was greater than 30 µM each time. Also, the AC50 (on Prothrombin; in assay [10]; in [11]) was greater than 30 µM throughout.
In the case of `C[C@H]1C[C@H]2[C@@H]3CCC4=CC(=O)C=C[C@]4(C)[C@@]3(F)[C@@H](O)C[C@]2(C)[C@@]1(O)C(=O)CO` [BETAMETHASONE], the AC50 in [1] is greater than 30 µM; in assay [2], greater than 30 µM; in assay [3] it was greater than 30 µM; on Progesterone receptor it was 11.4 µM; in [4], greater than 30 µM; in assay [5] it was greater than 30 µM. Further, the half-maximal activity concentration (AC50) (in assay [6]; in assay [7]; at Thromboxane A2 receptor [8]; on Acetylcholinesterase; at Thromboxane A2 receptor [9]; at D(1A) dopamine receptor) was greater than 30 µM in each case. Also, the half-maximal activity concentration (AC50) (on Prothrombin; in assay [10]; in assay [11]) was greater than 30 µM throughout.
With `O=c1[nH]c(=O)n([C@H]2C[C@H](O)[C@@H](CO)O2)cc1/C=C/Br` [BRIVUDINE], the AC50 (in [1]; in assay [2]; in assay [3]; on Progesterone receptor; in assay [4]; in assay [5]) was greater than 30 µM in each case. The half-maximal activity concentration (AC50) (in assay [6]; in assay [7]; at Thromboxane A2 receptor [8]; at Acetylcholinesterase; on Thromboxane A2 receptor [9]; at D(1A) dopamine receptor) was greater than 30 µM in each case. Further, the AC50 (on Prothrombin; in [10]; in [11]) was greater than 30 µM each time.
With `Nc1ccn(C[C@@H](CO)OCP(=O)(O)O)c(=O)n1` [CIDOFOVIR], the AC50 (in assay [1]; in assay [2]; in [3]; at Progesterone receptor; in assay [4]; in assay [5]) was greater than 30 µM throughout. Moreover, the AC50 (in [6]; in assay [7]; at Thromboxane A2 receptor [8]; on Acetylcholinesterase; at Thromboxane A2 receptor [9]; at D(1A) dopamine receptor) was greater than 30 µM in each case. Also, the concentration at half-maximal activity (AC50) (at Prothrombin; in [10]; in assay [11]) was greater than 30 µM each time.
Consider `CC(=O)OCC(=O)[C@@]1(OC(C)=O)[C@@H](C)C[C@H]2[C@@H]3C[C@H](F)C4=CC(=O)C=C[C@]4(C)[C@@]3(F)[C@@H](O)C[C@@]21C` [DIFLORASONE DIACETATE], for which the concentration at half-maximal activity (AC50) in [1] was greater than 30 µM; in assay [2], greater than 30 µM; in [3], greater than 30 µM; on Progesterone receptor, 0.0193 µM; in assay [4], greater than 30 µM; in assay [5], greater than 30 µM. In addition, the AC50 (in [6]; in assay [7]; at Thromboxane A2 receptor [8]; at Acetylcholinesterase; at Thromboxane A2 receptor [9]; at D(1A) dopamine receptor) was greater than 30 µM in each case. Moreover, the AC50 (on Prothrombin; in assay [10]; in [11]) was greater than 30 µM throughout.
With `CCCCC(=O)O[C@H]1CC[C@H]2[C@@H]3CCc4cc(O)ccc4[C@H]3CC[C@]12C` [ESTRADIOL VALERATE], the half-maximal activity concentration (AC50) was greater than 30 µM in assay [1]; 7.05 µM in [2]; greater than 30 µM in assay [3]; 0.234 µM at Progesterone receptor; greater than 30 µM in assay [4]; greater than 30 µM in assay [5]. Also, the AC50 in assay [6] is greater than 30 µM; in assay [7] it was greater than 30 µM; at Thromboxane A2 receptor [8], greater than 30 µM; at Acetylcholinesterase, greater than 30 µM; at Thromboxane A2 receptor [9] it was 23.1 µM; at D(1A) dopamine receptor, greater than 30 µM. For the same compound, the AC50 on Prothrombin was greater than 30 µM; in assay [10] it was greater than 30 µM; in assay [11] it was 23.9 µM.
